Marks after values point to notes of the source that are not given here.
Tests used:
MA-treated mice [1] = assay: MA-induced behavioural sensitization
Description: Morphinans (20 mg/kg, i.p.) were administered last 3 days of wash-out period.

MA-treated mice [2] = assay: MA model, HM versus L-dopa/carbidopa: nigral TH-IR; conditions: mouse, in vivo
Description: FIGS. 33A-33G show effects of carbidopa, L-dopa, carbidopa plus L-dopa, and HM on the nigral tyrosine hydroxylase-like immunoreactivity (TH-IR) of the mice treated with MA. […] Magnification=40×.

LPS-treated mice [3] = assay: Striatal dopamine and metabolites in LPS-treated mice; type: in vivo; conditions: for Concentration DA in the striatum: 3 weeks after LPS
Description: Control animals received striatal injection with PBS.
Mice were sacrificed at 3 weeks after LPS treatment.

MA-treated mice [4] = assay: Nigral TH-IR in MA-treated mice; conditions: 24 mg/kg i.p.
MA-treated mice [5] = assay: Striatal dopamine and metabolites in MA-treated mice; type: in vivo; conditions: for Concentration DA in the striatum: 3 days after final MA
Description: Mice were sacrificed at 3 days after final MA injection.

LPS-treated mice [6] = assay: LPS-induced loss of nigral TH-IR with CB1 agonist/antagonist and HM; type: in vivo; conditions: given alone
Description: Mortality was observed by 2 weeks after bilateral LPS intrastriatal injection (one side: 2 μg×2).

cocaine-treated mice [7] = assay: Cocaine-induced Fos-related antigen-immunoreactivity (FRA-IR) in the striatum; conditions: cocaine 5 mg/kg; morphinan 20 mg/kg i.p.
MA-treated mice [8] = assay: MA-induced loss of nigral TH-IR with CB1 agonist/antagonist and HM; conditions: given alone
Description: Compounds were administered 3 days before and after MA injection.

[9] = system: kainate or maximal electric shock; conditions: kainate (24) or maximal electric shock (27); cited from earlier work
σ1 receptors = σ1 receptors (Homo sapiens, UniProt Q99720); conditions: cited from earlier work
LPS-treated mice [10] = assay: LPS-induced mortality with CB1 agonist/antagonist and HM; type: in vivo; conditions: given alone: HM 20, ACEA 2, AM-251 0.3 mg/kg; 2 weeks after bilateral intrastriatal LPS
LPS-treated mice [11] = assay: LPS model, HM versus L-dopa/carbidopa: locomotor activity; type: in vivo; conditions: 3 weeks after LPS
Description: Locomotor activity was examined for 60 min at 3 weeks after LPS treatment. LPS-induced significant reduction (P<0.01 vs. saline treatment) in locomotor activity was attenuated by L-dopa (P<0.05), carbidopa+L-dopa (P<0.05) or HM (P<0.01) (FIGS. 24 and 25).

MA-treated mice [12] = assay: MA-induced conditioned place preference with CB1 modulation
Description: The control mice received an i.p. injection of saline just before entering the white or black compartment. Cocaine or MA dissolved in saline was administered immediately before the mice were placed in the white compartment. To test the effect of cocaine alone or MA alone or in combination with exemplified morphinans (DM, HM, AM, CM or DF), each morphinan was administered 2 hr before cocaine or saline injection.
On day 1, the mice were pre-exposed to the test apparatus for 5 min. The guillotine doors were raised and the mice were allowed to move freely between the two compartments. On day 2, the time each mouse spent in each compartment was recorded for 15 min. On days 3, 5, 7, 9, 11, and 13, the mice were injected with cocaine before being confined to the white compartment, the non-preferred side, for 20 min. On days 4, 6, 8, 10, and 12, the mice were injected with saline before being confined to the black compartment, the preferred side, for 20 min. On day 14, the guillotine doors were raised. The mice were initially placed in the tunnel and the time spent by the mice in the two compartments was recorded for 15 min. The scores were calculated from the differences in the time spent in the white compartment in the testing and pre-testing phases.

LPS-treated mice [13] = assay: LPS model, HM versus L-dopa/carbidopa: mortality; type: in vivo; conditions: intrastriatal LPS 2 μg x 4/head; 2 weeks
Description: Mortality was observed by 2 weeks after LPS injection. *P<0.01 vs. Saline+LPS (x^2-test).
The neuroprotective effect of HM was compared with L-dopa, carbidopa, or carbidopa plus L-dopa in response to dopaminergic damage induced by LPS. Intrastriatal injection of LPS (2 μg×4/head) produced high mortality (ten animals died out of twelve animals in the 2 weeks after LPS administration).

LPS-treated mice [14] = assay: Hypokinesia induced by intrastriatal LPS; conditions: 12 or 24 mg/kg, twice before bilateral intrastriatal LPS
Description: Male mice were anesthetized with chloral hydrate (200 mg/kg, i.p.) and positioned in a small-animal stereotaxic apparatus. […] LPS (2 μg in a volume of 2 μl of PBS) was injected into both sides of the striatum over a period of 2 min, and the injection needle was kept in place for 2 min after the injection. Control animals received striatal injection with PBS.
Ten min after the last treatment with each drug, locomotor activity was measured for 30 min. After measuring the locomotor activity (i.e. 40 min after the last drug injection), the ‘absolute turn angular’ was analyzed in a 3-min monitoring period using an automated video-tracking system (Noldus Information Technology, Wagenin, The Netherlands) to examine locomotor patterns. […] Eight test boxes (40×40×30 cm high) were operated simultaneously by an IBM computer. Animals were studied individually during locomotion in each test box, where they were adapted for 10 min before starting the experiment. […] The distance traveled in cm by the animals in horizontal locomotor activity was analyzed (13, 25, 27). Data were collected and analyzed between 0900 and 1700 hr.

cocaine-treated mice [15] = assay: Cocaine-induced behavioural sensitization with CB1 modulation
CB1 receptor = CB1 receptor (Rattus norvegicus, UniProt P20272); type: biochemical
MPTP-treated mice [16] = assay: Hypokinesia (reduction in locomotor activity) induced by MPTP; type: in vivo; conditions: 12 or 24 mg/kg i.p. 30 min before MPTP (20 mg/kg/day x 7), last three days
MPTP-treated mice [17] = assay: MPTP model, HM versus L-dopa/carbidopa: locomotor activity; type: in vivo; conditions: HM 24 mg/kg i.p., L-dopa 200 mg/kg p.o., carbidopa 20 mg/kg p.o., 2 weeks before MPTP
Description: FIGS. 20A-20B show effects of carbidopa, L-dopa, carbidopa+L-dopa and HM on the changes in locomotor activity (A) and locomotor pattern (B) induced by MPTP in mice.
A prescription drug for treating Parkinsonian patients is L-dopa or carbidopa plus L-dopa. Thus, the neuroprotective effects of HM was compared with L-dopa, carbidopa, or carbidopa plus L-dopa. […] Locomotor activity was examined for 60 min after final treatment of MPTP. Mice were sacrificed at 24 h after final MPTP administration. HM (24 mg/kg, i.p.), L-dopa (200 mg/kg, p.o.) with or without carbidopa (20 mg/kg, p.o.) was administered for 2 weeks before first MPTP challenge.

MPTP-treated mice [18] = assay: Nigral tyrosine hydroxylase-like immunoreactivity in MPTP-treated mice; conditions: 24 mg/kg i.p.
Description: Each morphinan was administered 30 min prior to every injection of MPTP for last three days (from day 4th to day 7th). Animals were sacrificed 24 h after the last MPTP treatment.

CB1 receptor, sequence (P20272 whole entry): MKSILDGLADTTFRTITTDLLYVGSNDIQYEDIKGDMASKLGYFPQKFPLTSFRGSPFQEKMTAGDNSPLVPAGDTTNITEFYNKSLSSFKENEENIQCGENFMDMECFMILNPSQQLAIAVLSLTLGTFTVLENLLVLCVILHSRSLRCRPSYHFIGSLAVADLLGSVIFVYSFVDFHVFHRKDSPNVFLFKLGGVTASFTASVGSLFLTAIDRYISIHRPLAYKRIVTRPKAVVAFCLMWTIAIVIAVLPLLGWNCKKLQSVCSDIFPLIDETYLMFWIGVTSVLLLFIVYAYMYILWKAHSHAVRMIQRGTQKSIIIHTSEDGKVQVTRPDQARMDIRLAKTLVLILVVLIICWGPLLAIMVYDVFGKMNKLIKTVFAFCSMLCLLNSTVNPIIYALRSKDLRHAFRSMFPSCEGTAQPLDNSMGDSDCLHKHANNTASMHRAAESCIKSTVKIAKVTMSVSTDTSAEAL
σ1 receptors, sequence (Q99720 whole entry): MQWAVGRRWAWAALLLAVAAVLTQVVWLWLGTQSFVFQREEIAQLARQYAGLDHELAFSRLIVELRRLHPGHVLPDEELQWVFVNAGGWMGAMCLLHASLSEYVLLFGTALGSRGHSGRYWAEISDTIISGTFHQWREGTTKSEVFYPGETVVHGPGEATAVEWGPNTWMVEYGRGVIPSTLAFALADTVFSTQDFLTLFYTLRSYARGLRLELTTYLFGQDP

Oc1ccc2c(c1)[C@@]13CCCC[C@H]1[C@@H](C2)NCC3 [HM, 3-hydroxymorphinan]
behavioural effects of the compound itself (MA-treated mice [1]; AM 251 0.3, ACEA 2, HM 20 mg/kg, no MA (Ex. 3.14)): Neither saline-, AM 251 (0.3 mg/kg)-, ACEA (2 mg/kg)-treated nor HM (20 mg/kg)-treated animals showed any behavioural effects | effect on MA-induced behavioural sensitization (CB1 modulation study) (MA-treated mice [1]; MA 1 mg/kg i.p./day x 7, challenge one week later (Ex. 3.14)): significantly reduced | effect on MA-induced nigral loss in TH-IR (MA-treated mice [2]): more pronounced than that of carbidopa+L-dopa | effect on LPS-induced reductions in striatal DA, DOPAC and HVA (LPS-treated mice [3]; 24 mg/kg pretreatment): significantly protected | Concentration DOPAC in the striatum (LPS-treated mice [3]; morphinan 12 (mg/kg) + LPS): 83 ± 10 ng/100 mg wet tissue | Concentration HVA in the striatum (LPS-treated mice [3]; morphinan 12 (mg/kg) + LPS): 86 ± 8 ng/100 mg wet tissue | Concentration DA in the striatum (LPS-treated mice [3]; morphinan 12 (mg/kg) + LPS, mean ± S.E.M., 8 animals): 682 ± 70 ng/100 mg wet tissue | Concentration DOPAC in the striatum (LPS-treated mice [3]; morphinan 24 (mg/kg) + LPS): 112 ± 11^d ng/100 mg wet tissue | Concentration HVA in the striatum (LPS-treated mice [3]; morphinan 24 (mg/kg) + LPS): 102 ± 10^b ng/100 mg wet tissue | Concentration DA in the striatum (LPS-treated mice [3]; morphinan 24 (mg/kg) + LPS): 916 ± 98^d ng/100 mg wet tissue | effect on MA-induced decrease in nigral TH-positive cells (MA-treated mice [4]): significantly attenuated the decrease in TH-positive cells | effect on MA-induced reductions in striatal DA, DOPAC and HVA (MA-treated mice [5]; 24 mg/kg pretreatment): significantly protected | Concentration DOPAC in the striatum (MA-treated mice [5]; morphinan 12 (mg/kg) + MA): 88 ± 10 ng/100 mg wet tissue | Concentration HVA in the striatum (MA-treated mice [5]; morphinan 12 (mg/kg) + MA): 82 ± 8 ng/100 mg wet tissue | Concentration DA in the striatum (MA-treated mice [5]; morphinan 12 (mg/kg) + MA, mean ± S.E.M., 8 animals): 685 ± 64 ng/100 mg wet tissue | Concentration DOPAC in the striatum (MA-treated mice [5]; morphinan 24 (mg/kg) + MA): 103 ± 9^d^ ng/100 mg wet tissue | Concentration HVA in the striatum (MA-treated mice [5]; morphinan 24 (mg/kg) + MA): 100 ± 11^c ng/100 mg wet tissue | Concentration DA in the striatum (MA-treated mice [5]; morphinan 24 (mg/kg) + MA): 864 ± 82^d ng/100 mg wet tissue | effect on LPS-induced reduction in nigral TH-IR (LPS-treated mice [6]): Attenuates LPS-Induced Reduced Tyrosine Hydroxylase-like Immunoreactivity | effect on cocaine-induced FRA-IR in the striatum (cocaine-treated mice [7]): apparently attenuated | effect on MA-induced reduction in nigral TH-IR (MA-treated mice [8]): Prevents Methamphetamine (MA)-induced Reduction in Tyrosine Hydroxylase-like Immunoreactivity | anticonvulsant effect [9]: did not show any anticonvulsant effect | affinity for σ1 receptors (σ1 receptors): high affinity ligands | effect on LPS-induced mortality (LPS-treated mice [10]): No animal died | effect on LPS-induced reduction in locomotor activity (LPS-treated mice [11]): attenuated | CPP response of the compound itself (MA-treated mice [12]; AM 251 0.3, HM 20, ACEA 2 mg/kg i.p., no MA): Neither saline-, AM 251 (0.3 mg/kg, i.p.)-treated nor HM (20 mg/kg)-treated animals showed any CPP responses | effect on MA-induced CPP (MA-treated mice [12]; mouse, in vivo): significantly reduced the CPP produced by MA | effect on mortality induced by LPS (LPS-treated mice [13]): most pronounced | effect on LPS-induced decrease in locomotor activity (LPS-treated mice [14]): significantly prevented LPS-induced decrease in locomotor activity | behavioural effects of the compound itself (cocaine-treated mice [15]; AM 251 0.3, ACEA 2, HM 20 mg/kg, no cocaine): Neither saline-, AM 251 (0.3 mg/kg)-, ACEA (2 mg/kg)-treated nor HM (20 mg/kg)-treated animals showed any specific behavioural effects | effect on cocaine-induced behavioural sensitization (cocaine-treated mice [15]; cocaine 10 mg/kg/day i.p. x 7, challenge one month later): significantly reduced | effect on CP 55940-induced stimulation in GTP γS binding (CB1 receptor): decreased | functional property at CB1 receptor (CB1 receptor): partial agonist of CB1 receptor, as well as a CB1 antagonist | inhibition of GTP γS binding (CB1 receptor; 100 nM): about 60% | effect on MPTP-induced reduction in locomotor activity (MPTP-treated mice [16]): significantly prevented MPTP-induced reduction in locomotor activity | effect on MPTP-induced decrease in locomotor activity (MPTP-treated mice [17]): significantly increased | effect on MPTP-induced decrease in nigral TH-positive cells (MPTP-treated mice [18]): significantly attenuated the decrease in TH-positive cells

Source: patent US7691874B2, “Neuroprotective properties of dextrorotatory morphinans” (priority 2004, dated 2010)
